# What was measured:
# [1] = target: Human KLK1 (Homo sapiens (Human), UniProt P06870); assay: Determination of the IC50 for KLK1; type: biochemical; settings: human KLK1, 25° C., substrate H-DVal-Leu-Arg-AFC
# Procedure: Determination of the IC50 for KLK1
# (§1) Human KLK1 (Callbiochem) was incubated at 25° C. with the fluorogenic substrate H-DVal-Leu-Arg-AFC and various concentrations of the test compound. Residual enzyme activity (initial rate of reaction) was determined by measuring the change in […] at 410 nm and the IC50 value for the test compound was determined.
# [2] = target: Human plasma kallikrein (Homo sapiens (Human), UniProt P03952); assay: Determination of the IC50 for plasma kallikrein; type: biochemical; settings: read-out: IC50 (human PKal)
# Sequence of Human plasma kallikrein (P03952 391-638): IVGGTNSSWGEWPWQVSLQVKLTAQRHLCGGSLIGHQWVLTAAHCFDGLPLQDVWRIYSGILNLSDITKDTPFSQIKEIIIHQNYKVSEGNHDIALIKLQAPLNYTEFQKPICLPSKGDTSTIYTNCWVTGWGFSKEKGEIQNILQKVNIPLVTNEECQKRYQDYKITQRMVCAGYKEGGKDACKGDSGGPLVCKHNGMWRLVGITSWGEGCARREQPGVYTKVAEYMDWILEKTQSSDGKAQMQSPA
# Sequence of Human plasma kallikrein (P03952 20-390 partner): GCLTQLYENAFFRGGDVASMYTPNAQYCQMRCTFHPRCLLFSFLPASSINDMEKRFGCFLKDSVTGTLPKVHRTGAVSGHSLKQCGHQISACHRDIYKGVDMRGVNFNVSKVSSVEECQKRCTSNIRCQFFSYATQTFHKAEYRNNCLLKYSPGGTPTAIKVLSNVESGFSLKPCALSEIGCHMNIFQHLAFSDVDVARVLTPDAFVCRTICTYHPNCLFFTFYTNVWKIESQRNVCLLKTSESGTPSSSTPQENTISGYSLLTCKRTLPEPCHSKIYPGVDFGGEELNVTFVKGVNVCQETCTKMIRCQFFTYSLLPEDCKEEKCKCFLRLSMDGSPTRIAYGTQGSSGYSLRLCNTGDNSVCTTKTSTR
# Procedure: Determination of the IC50 for Plasma Kallikrein
# as §1, with “plasma kallikrein (Protogen)” for “KLK1 (Callbiochem)”, “H-DPro-Phe-Arg-AFC” for “H-DVal-Leu-Arg-AFC”
# [3] = target: Human FXIa (Homo sapiens (Human), UniProt P03951); assay: Determination of the % inhibition for FXIa; type: biochemical; settings: 40 μM of the test compound, human FXIa, 25° C.; for inhibition at 40 µM: read-out: % Inhibition @ 40 μM (human FXIa)
# Sequence of Human FXIa (P03951 388-625 limits assumed): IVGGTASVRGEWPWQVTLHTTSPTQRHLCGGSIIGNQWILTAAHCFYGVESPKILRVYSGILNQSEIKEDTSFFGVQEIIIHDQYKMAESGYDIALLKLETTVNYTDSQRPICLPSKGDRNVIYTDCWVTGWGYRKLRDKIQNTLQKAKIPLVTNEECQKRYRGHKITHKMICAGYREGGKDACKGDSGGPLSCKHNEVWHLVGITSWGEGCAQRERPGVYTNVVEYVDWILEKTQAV
# Sequence of Human FXIa (P03951 19-387 partner limits assumed): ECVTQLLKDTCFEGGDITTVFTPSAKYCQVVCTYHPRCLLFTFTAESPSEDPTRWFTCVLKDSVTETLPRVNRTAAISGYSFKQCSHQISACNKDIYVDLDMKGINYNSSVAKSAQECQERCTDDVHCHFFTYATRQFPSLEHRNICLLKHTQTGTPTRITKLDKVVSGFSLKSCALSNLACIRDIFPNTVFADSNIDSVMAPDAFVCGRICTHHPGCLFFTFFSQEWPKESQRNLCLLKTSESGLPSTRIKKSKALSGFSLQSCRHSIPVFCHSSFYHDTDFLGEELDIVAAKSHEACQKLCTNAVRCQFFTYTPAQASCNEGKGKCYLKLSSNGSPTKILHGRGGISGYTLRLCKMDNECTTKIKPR
# Procedure: Determination of the % Inhibition for FXIa
# Human FXIa (Enzyme Research Laboratories) was incubated at 25° C. with the fluorogenic substrate Z-Gly-Pro-Arg-AFC and 40 μM of the test compound. Residual enzyme activity (initial rate of reaction) was determined by measuring the change in […].
# [4] = Pharmacokinetics following a single oral dose in rats; type: in vivo; settings: rat, male Sprague-Dawley rats, nominal 10 mg/kg in 10% DMSO/10% cremophor/80% SWFI, plasma, actual dose 7.6 mg/kg (Example 115), 8.4 mg/kg (Example 85)
# Procedure: Pharmacokinetic studies of the compounds in Table 15 were performed to assess the pharmacokinetics following a single oral dose in male Sprague-Dawley rats. Two rats were given a single po dose of 5 mL/kg of a nominal 2 mg/mL (10 mg/kg) composition of test compound in 10% DMSO/10% cremophor/80% SWFI. Following dosing, blood samples were collected over a period of 24 hours. Sample times were 5, 15 and 30 minutes then 1, 2, 4, 6, 8 and 12 hours. Following collection, blood samples were centrifuged and the plasma fraction analysed for concentration of test compound by LCMS.
# Sequence of Human KLK1 (P06870 25-262): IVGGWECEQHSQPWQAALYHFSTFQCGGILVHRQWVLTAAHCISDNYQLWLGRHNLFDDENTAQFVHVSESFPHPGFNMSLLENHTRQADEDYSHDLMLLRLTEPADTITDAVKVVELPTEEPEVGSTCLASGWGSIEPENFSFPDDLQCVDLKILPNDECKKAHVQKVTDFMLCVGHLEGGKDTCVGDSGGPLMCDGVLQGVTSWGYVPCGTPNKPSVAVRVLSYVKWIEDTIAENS
Structure (SMILES),IC50 [1] [nM],IC50 [2] [nM],inhibition at 40 µM [3] [%],Cmax [4] [ng/mL],Tmax [4] [min],% Inhibition @ 40 μM (human FXIa) [3] [%]
"Nc1nn(Cc2ccc(Cn3ccccc3=O)cc2)cc1C(=O)NCCOc1ccc(Cl)c(Cl)c1 [Example 30, 3-amino-N-[2-(3,4-dichlorophenoxy}ethyl]-1-({4-[(2-oxopyridin-1-yl)methyl]phenyl}methyl)pyrazole-4-carboxamide]",> 40000,96.8,0,–,–,–
"O=C(NCCOc1cccc(Cl)c1)c1cn(Cc2ccc(Cn3ccccc3=O)cc2)nc1C1CC1 [Example 5, N-[2-(3-chlorophenoxy)ethyl]-3-cyclopropyl-1-({4-[(2-oxopyridin-1-yl)methyl]phenyl}methyl)pyrazole-4-carboxamide]",> 10000,68.4,0,–,–,–
"Nc1c(C(=O)NCCOc2cccc(Cl)c2)cnn1Cc1ccc(Cn2ccccc2=O)cc1 [Example 17, 5-amino-N-[2-(3-chlorophenoxy)ethyl]-1-({4-[(2-oxopyridin-1-yl)methyl]phenyl}methyl)pyrazole-4-carboxamide]",> 10000,96,2,–,–,–
"CN(C)c1nn(Cc2ccc(Cn3ccccc3=O)cc2)cc1C(=O)NCCOc1cccc(Cl)c1 [Example 35, N-[2-(3-chlorophenoxy)ethyl]-3-(dimethylamino)-1-({4-[(2-oxopyridin-1-yl)methyl]phenyl}methyl)pyrazole-4-carboxamide]",> 40000,122,1,–,–,–
"Nc1nn(Cc2ccc(Cn3ccccc3=O)cc2)cc1C(=O)NCCOc1cncc(Cl)c1 [Example 18, 3-amino-N-{2-[(5-chloropyridin-3-yl)oxy]ethyl}-1-({4-[(2-oxopyridin-1-yl)methyl]phenyl}methyl)pyrazole-4-carboxamide]",> 40000,2010,0,–,–,–
"COCc1nn(Cc2ccc(Cn3ccccc3=O)cc2)cc1C(=O)NCCOc1cccc(Cl)c1 [Example 8, N-[2-(3-chlorophenoxy)ethyl]-3-(methoxymethyl)-1-({4-[(2-oxopyridin-1-yl)methyl]phenyl}methyl)pyrazole-4-carboxamide]",> 10000,16.6,0,–,–,–
"Cc1cc(C(=O)NCCOc2cccc(Cl)c2)c(C)n1Cc1csc(-c2ccccc2)n1 [Example 48, N-[2-(3-chlorophenoxy)ethyl]-2,5-dimethyl-1-[(2-phenyl-1,3-thiazol-4-yl)methyl]pyrrole-3-carboxamide]",> 10000,6620,–,–,–,3
"O=C(NCCOc1cccc(Cl)c1)c1cnn(Cc2ccc(Cn3ccccc3=O)cc2)c1 [Example 36, N-[2-(3-chlorophenoxy)ethyl]-1-({4-[(2-oxopyridin-1-yl)methyl]phenyl}methyl)pyrazole-4-carboxamide]",> 40000,6.1,0,–,–,–
"Cc1ccc(OCCNC(=O)c2cn(Cc3ccc(Cn4ccccc4=O)cc3)nc2N)cc1Cl [Example 15, 3-amlno-N-[2-(3-chloro-4-methylphenoxy)ethyl]-1-({4-[(2-oxopyridin-1-yl)methyl]phenyl}methyl)pyrazole-4-carboxamide]",> 40000,24.6,–,–,–,1
Nc1nn(Cc2ccc(Cn3ccccc3=O)cc2)cc1C(=O)NCC(=O)Nc1cccc(Cl)c1 [Example 2],> 10000,60.2,0,–,–,–
"N#Cc1ccc(Cl)cc1OCCNC(=O)c1cn(Cc2ccc(Cn3ccccc3=O)cc2)nc1N [Example 32, 3-amino-N-[2-(5-chloro-2-cyanophenoxy)ethyl]-1-({4-[(2-oxopyridin-1-yl)methyl]phenyl}methyl)pyrazole-4-carboxamide]",> 40000,10.1,10,–,–,–

# Further lines, with some results ahead:
IC50 [1] [nM],IC50 [2] [nM],inhibition at 40 µM [3] [%],Cmax [4] [ng/mL],Tmax [4] [min],Structure (SMILES),% Inhibition @ 40 μM (human FXIa) [3] [%]
> 40000,30.2,0,–,–,"Nc1nn(Cc2ccc(Cn3cccnc3=O)cc2)cc1C(=O)NCCOc1cccc(Cl)c1 [Example 86, 3-amino-N-[2-(3-chlorophenoxy)ethyl]-1-({4-[(2-oxopyrimidin-1-yl)methyl]phenyl}methyl)pyrazole-4-carboxamide]",–
> 40000,5420,1,–,–,"COC(=O)c1ccc(Cn2cc(C(=O)NCCOc3cccc(Cl)c3)c(N)n2)cc1 [Example 58, methyl 4-[(3-amino-4-{[2-(3-chlorophenoxy)ethyl]carbamoyl}pyrazol-1-yl)methyl]benzoate]",–
> 40000,3.8,0,–,–,"Nc1nn(Cc2ccc(Cn3ccccc3=O)cc2)cc1C(=O)N[C@H]1CCN(c2cccc(Cl)c2)C1 [Example 105, 3-amino-N-[(3S)-1-(3-chlorophenyl)pyrrolidin-3-yl]-1-({4-[(2-oxopyridin-1-yl)methyl]phenyl}methyl)pyrazole-4-carboxamide]",–
> 40000,140,0,–,–,"C[C@@H](COc1cccc(Cl)c1)NC(=O)c1cn(Cc2ccc(Cn3ccccc3=O)cc2)nc1N [Example 114, 3-amino-N-[(2S)-1-(3-chlorophenoxy)propan-2-yl]-1-({4-[(2-oxopyridin-1-yl)methyl]phenyl}methyl)pyrazole-4-carboxamide]",–
> 40000,3780,0,–,–,"Nc1nn(Cc2ccnc(-c3cccnc3)c2)cc1C(=O)NCCOc1cccc(Cl)c1 [Example 91, 3-amino-N-[2-(3-chlorophenoxy)ethyl]-1-{[2-(pyridin-3-yl)pyridin-4-yl]methyl}pyrazole-4-carboxamide]",–
> 40000,3670,0,–,–,"Nc1nn(Cc2ccc(COc3ncccn3)cc2)cc1C(=O)NCCOc1cccc(Cl)c1 [Example 75, 3-amino-N-[2-(3-chlorophenoxy)ethyl]-1-({4-[(pyrimidin-2-yloxy)methyl]phenyl}methyl)pyrazole-4-carboxamide]",–
> 40000,684,4,–,–,"Nc1nn(Cc2ccc(Cn3ccccc3=O)cc2)cc1C(=O)N[C@@H]1CCN(c2cccc(Cl)c2)C1 [Example 106, 3-amino-N-[(3R)-1-(3-chlorophenyl)pyrrolidin-3-yl]-1-({4-[(2-oxopyridin-1-yl)methyl]phenyl}methyl)pyrazole-4-carboxamide]",–
> 40000,4.8,2,–,–,"Nc1nn(Cc2ccc(Cn3ccccc3=O)cc2)cc1C(=O)N[C@H]1CCN(c2cccc(Cl)c2)C1=O [Example 107, 3-amino-N-[(3S)-1-(3-chlorophenyl)-2-oxopyrrolidin-3-yl]-1-({4-[(2-oxopyridin-1-yl)methyl]phenyl}methyl)pyrazole-4-carboxamide]",–
> 40000,> 10000,0,–,–,"CNC(=O)CNc1cc(Cn2cc(C(=O)NCCOc3cccc(Cl)c3)c(N)n2)ccn1 [Example 68, 3-amino-N-[2-(3-chlorophenoxy)ethyl]-1-[(2-{[(methylcarbamoyl)methyl]amino}pyridin-4-yl)methyl]pyrazole-4-carboxamide]",–
> 40000,18.5,8,–,–,"CNc1nn(Cc2ccc(Cn3ccccc3=O)cc2)cc1C(=O)NCCOc1cccc(Cl)c1 [Example 37, N-[2-(3-Chlorophenoxy)ethyl]-3-(methylamino)-1-({4-[(2-oxopyridin-1-yl)methyl]phenyl}methyl)pyrazole-4-carboxamide]",–
> 40000,780,0,–,–,"CN(Cc1ccc(Cn2cc(C(=O)NCCOc3cccc(Cl)c3)c(N)n2)cc1)c1ccccn1 [Example 87, 3-amino-N-[2-(3-chlorophenoxy)ethyl]-1-[(4-{[methyl(pyridin-2-yl)amino]methyl}phenyl)methyl]pyrazole-4-carboxamide]",–
> 40000,427,51,–,–,"Nc1nn(Cc2ccc(C(=O)N3CCCC3)cc2)cc1C(=O)NCCOc1cccc(Cl)c1 [Example 51, 3-amino-N-[2-(3-chlorophenoxy)ethyl]-1-({4-[(pyrrolidin-1-yl)carbonyl]phenyl}methyl)pyrazole-4-carboxamide]",–
> 40000,5.6,–,538,30,"C[C@@H](CNC(=O)c1cn(Cc2ccc(Cn3ccccc3=O)cc2)nc1N)Oc1cccc(Cl)c1 [Example 115, 3-Amino-N-[(2S)-2-(3-chlorophenoxy)propyl]-1-({4-[(2-oxopyridin-1-yl)methyl]phenyl}methyl)-pyrazole-4-carboxamide]",–

# Source: patent US10781181B2, “N-((het) arylmethyl)-heteroaryl-carboxamides compounds as plasma kallikrein inhibitors” (Kalvista Pharmaceuticals Limited, priority 2014, dated 2020)
